Experiments:
[1] = tested on: Italian ryegrass; assay: Test Example 4: herbicidal effect by soil treatment (Table 19, symbol K); assay type: in vivo, Italian ryegrass (Lolium multiflorum); details: for herbicidal effect, K: Italian ryegrass: amount of applied herbicide 320 g/ha
Outline: (§1)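 Herbicidal effect was rated 3 weeks after treatment, using the scoring criteria of an earlier test. The compound, formulated as an emulsion and diluted in water to a set herbicide amount, had been sprayed uniformly on soil over freshly sown seeds. Growth took place in a greenhouse at 25° C. to 30° C.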

[2] = tested on: windgrass; assay: Test Example 4: herbicidal effect by soil treatment (Table 19, symbol L); assay type: in vivo, windgrass (Apera spica-venti); details: for herbicidal effect, L: windgrass: amount of applied herbicide 320 g/ha
Outline: as §1

[3] = tested on: persian speedwell; assay: Test Example 5: herbicidal effect by foliage application, plastic box (Table 20, symbol R); assay type: in vivo, Persian speedwell (Veronica persica); details: foliage application, 320 g/ha, 3 weeks after application
Outline: (§2)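 Foliar spray test: emulsion formulation diluted in water to a set application rate, sprayed onto 14-day-old plants raised in diluvial soil at 25° C to 30° C under glass. Both herbicidal effect and crop effect rated visually three weeks later.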

[4] = tested on: lambsquarters; assay: Test Example 5: herbicidal effect by foliage application, plastic box (Table 20, symbol O); assay type: in vivo, lambsquarters (Chenopodium album); details: foliage application, 320 g/ha, 3 weeks after application
Outline: as §2

[5] = tested on: blackgrass; assay: Test Example 4: herbicidal effect by soil treatment (Table 19, symbol J); assay type: in vivo, blackgrass (Alopecurus myosuroides); details: for herbicidal effect, J: blackgrass: amount of applied herbicide 320 g/ha
Outline: as §1

[6] = tested on: persian speedwell; assay: Test Example 4: herbicidal effect by soil treatment (Table 19, symbol R); assay type: in vivo, Persian speedwell (Veronica persica); details: for herbicidal effect, R: persian speedwell: amount of applied herbicide 320 g/ha
Outline: as §1

[7] = tested on: wild oat; assay: Test Example 5: herbicidal effect by foliage application, plastic box (Table 20, symbol I); assay type: in vivo, wild oat (Avena fatua); details: foliage application, 320 g/ha, 3 weeks after application
Outline: as §2

[8] = tested on: green foxtail; assay: Test Example 5: herbicidal effect by foliage application, plastic box (Table 20, symbol G); assay type: in vivo, green foxtail (Setaria viridis); details: foliage application, 320 g/ha, 3 weeks after application
Outline: as §2

[9] = tested on: southern crabgrass; assay: Test Example 5: herbicidal effect by foliage application, plastic box (Table 20, symbol F); assay type: in vivo, southern crabgrass (Digitaria ciliaris); details: foliage application, 320 g/ha, 3 weeks after application
Outline: as §2

[10] = tested on: blackgrass; assay: Test Example 5: herbicidal effect by foliage application, plastic box (Table 20, symbol J); assay type: in vivo, blackgrass (Alopecurus myosuroides); details: foliage application, 320 g/ha, 3 weeks after application
Outline: as §2

[11] = tested on: wild oat; assay: Test Example 4: herbicidal effect by soil treatment (Table 19, symbol I); assay type: in vivo, wild oat (Avena fatua); details: for herbicidal effect, I: wild oat: amount of applied herbicide 320 g/ha
Outline: as §1

[12] = tested on: barnyard grass; assay: Test Example 5: herbicidal effect by foliage application, plastic box (Table 20, symbol H); assay type: in vivo, barnyard grass (Echinochloa crus-galli); details: foliage application, 320 g/ha, 3 weeks after application
Outline: as §2

[13] = tested on: velvetleaf; assay: Test Example 5: herbicidal effect by foliage application, plastic box (Table 20, symbol M); assay type: in vivo, velvetleaf (Abutilon theophrasti); details: foliage application, 320 g/ha, 3 weeks after application
Outline: as §2

[14] = tested on: rice flat sedge; assay: Test Example 3: herbicidal effect by foliage application, Wagner pot (Table 18, symbol E); assay type: in vivo, rice flat sedge (Cyperus iria); details: for herbicidal effect on E: rice flat sedge: amount of applied herbicide 320 g/ha
Outline: (§3)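 Plants were sown in alluvial soil held under 0.1–0.5 cm standing water and grown 14 days in a greenhouse at 25–30 °C. An emulsifiable formulation, water-diluted to the set dose, was then sprayed onto the foliage, and effects were scored three weeks later using previously defined criteria.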

[15] = tested on: windgrass; assay: Test Example 5: herbicidal effect by foliage application, plastic box (Table 20, symbol L); assay type: in vivo, windgrass (Apera spica-venti); details: foliage application, 320 g/ha, 3 weeks after application
Outline: as §2

[16] = tested on: barnyard grass; assay: Test Example 3: herbicidal effect by foliage application, Wagner pot (Table 18, symbol H); assay type: in vivo, barnyard grass (Echinochloa crus-galli); details: for herbicidal effect on H: barnyard grass: amount of applied herbicide 320 g/ha
Outline: as §3

[17] = tested on: Chinese sprangletop; assay: Test Example 3: herbicidal effect by foliage application, Wagner pot (Table 18, symbol D); assay type: in vivo, chinese sprangletop (Leptochloa chinensis); details: for herbicidal effect on D: Chinese sprangletop: amount of applied herbicide 320 g/ha
Outline: as §3

[18] = tested on: Italian ryegrass; assay: Test Example 5: herbicidal effect by foliage application, plastic box (Table 20, symbol K); assay type: in vivo, Italian ryegrass (Lolium multiflorum); details: foliage application, 320 g/ha, 3 weeks after application
Outline: as §2

[19] = tested on: chickweed; assay: Test Example 4: herbicidal effect by soil treatment (Table 19, symbol P); assay type: in vivo, common chickweed (Stellaria media); details: for herbicidal effect, P: chickweed: amount of applied herbicide 320 g/ha
Outline: as §1

[20] = tested on: southern crabgrass; assay: Test Example 4: herbicidal effect by soil treatment (Table 19, symbol F); assay type: in vivo, southern crabgrass (Digitaria ciliaris); details: amount of applied herbicide 320 g/ha
Outline: as §1

[21] = tested on: lambsquarters; assay: Test Example 4: herbicidal effect by soil treatment (Table 19, symbol O); assay type: in vivo, lambsquarters (Chenopodium album); details: amount of applied herbicide 320 g/ha
Outline: as §1

[22] = tested on: barnyard grass; assay: Test Example 4: herbicidal effect by soil treatment (Table 19, symbol H); assay type: in vivo, barnyard grass (Echinochloa crus-galli); details: amount of applied herbicide 320 g/ha
Outline: as §1

[23] = tested on: velvetleaf; assay: Test Example 4: herbicidal effect by soil treatment (Table 19, symbol M); assay type: in vivo, velvetleaf (Abutilon theophrasti); details: amount of applied herbicide 320 g/ha
Outline: as §1

[24] = tested on: redroot pigweed; assay: Test Example 4: herbicidal effect by soil treatment (Table 19, symbol N); assay type: in vivo, redroot pigweed (Amaranthus retroflexus); details: amount of applied herbicide 320 g/ha
Outline: as §1

[25] = tested on: green foxtail; assay: Test Example 4: herbicidal effect by soil treatment (Table 19, symbol G); assay type: in vivo, green foxtail (Setaria viridis); details: amount of applied herbicide 320 g/ha
Outline: as §1

| SMILES | herbicidal effect, K: Italian ryegrass [1] | herbicidal effect, L: windgrass [2] | herbicidal effect, F: southern crabgrass [20] | herbicidal effect, J: blackgrass [5] | herbicidal effect, R: persian speedwell [6] | herbicidal effect, I: wild oat [11] | herbicidal effect, O: lambsquarters [21] | herbicidal effect on E: rice flat sedge [14] | herbicidal effect, H: barnyard grass [22] | herbicidal effect on H: barnyard grass [16] | herbicidal effect on D: Chinese sprangletop [17] | herbicidal effect, M: velvetleaf [23] | herbicidal effect, N: redroot pigweed [24] | herbicidal effect, G: green foxtail [25] | herbicidal effect, P: chickweed [19] | other results |
| --- | --- | --- | --- | --- | --- | --- | --- | --- | --- | --- | --- | --- | --- | --- | --- | --- |
| COc1nn(C)c(=O)c(-c2c(-c3cc4ccccc4s3)sc3ccccc23)c1O [1-196] | – | – | – | – | – | – | – | – | – | – | – | – | – | – | – | K: Italian ryegrass, herbicidal effect rating ([1]; AAH 320 g/ha): 4 (Herbicidal rate of 70% or more and less than 90%); L: windgrass, herbicidal effect rating ([2]; AAH 320 g/ha): 0 (Herbicidal rate of 5% or less (almost no effect)); effect on persian speedwell (R) [3]: 5 (Herbicidal rate of 90% or more (almost completely withered)); effect on lambsquarters (O) [4]: 5 (Herbicidal rate of 90% or more (almost completely withered)); J: blackgrass, herbicidal effect rating ([5]; AAH 320 g/ha): 0 (Herbicidal rate of 5% or less (almost no effect)); R: persian speedwell, herbicidal effect rating ([6]; AAH 320 g/ha): 5 (Herbicidal rate of 90% or more (almost completely withered)); effect on wild oat (I) [7]: 0 (Herbicidal rate of 5% or less (almost no effect)); effect on green foxtail (G) [8]: 0 (Herbicidal rate of 5% or less (almost no effect)); effect on southern crabgrass (F) [9]: 0 (Herbicidal rate of 5% or less (almost no effect)); effect on blackgrass (J) [10]: 0 (Herbicidal rate of 5% or less (almost no effect)); I: wild oat, herbicidal effect rating ([11]; AAH 320 g/ha): 0 (Herbicidal rate of 5% or less (almost no effect)); effect on barnyard grass (H) [12]: 0 (Herbicidal rate of 5% or less (almost no effect)); effect on velvetleaf (M) [13]: 3 (Herbicidal rate of 40% or more and less than 70%); herbicidal effect on E (rice flat sedge), rating 0-5 ([14]; 320 g/ha): 5 (Herbicidal rate of 90% or more (almost completely withered)); effect on windgrass (L) [15]: 0 (Herbicidal rate of 5% or less (almost no effect)); herbicidal effect on H (barnyard grass), rating 0-5 ([16]; 320 g/ha): 3 (Herbicidal rate of 40% or more and less than 70%); herbicidal effect on D (Chinese sprangletop), rating 0-5 ([17]; 320 g/ha): 0 (Herbicidal rate of 5% or less (almost no effect)); effect on Italian ryegrass (K) [18]: 3 (Herbicidal rate of 40% or more and less than 70%); P: chickweed, herbicidal effect rating ([19]; AAH 320 g/ha): 5 (Herbicidal rate of 90% or more (almost completely withered)) |
| Cc1nn(C)c(=O)c(-c2c(-c3ccc(C(F)(F)F)cc3F)sc3ccc(F)cc23)c1O [2-354] | 0 (Herbicidal rate of 5% or less (almost no effect)) | 0 (Herbicidal rate of 5% or less (almost no effect)) | 0 (Herbicidal rate of 5% or less (almost no effect)) | 0 (Herbicidal rate of 5% or less (almost no effect)) | 4 (Herbicidal rate of 70% or more and less than 90%) | 0 (Herbicidal rate of 5% or less (almost no effect)) | 3 (Herbicidal rate of 40% or more and less than 70%) | 5 (Herbicidal rate of 90% or more (almost completely withered)) | 0 (Herbicidal rate of 5% or less (almost no effect)) | 5 (Herbicidal rate of 90% or more (almost completely withered)) | 5 (Herbicidal rate of 90% or more (almost completely withered)) | 0 (Herbicidal rate of 5% or less (almost no effect)) | 3 (Herbicidal rate of 40% or more and less than 70%) | 1 (Herbicidal rate of 5% or more and less than 20%) | 1 (Herbicidal rate of 5% or more and less than 20%) | – |
| COc1cccc(-c2sc3ccc(F)cc3c2-c2c(O)c(C)nn(C)c2=O)c1F [2-362] | 2 (Herbicidal rate of 20% or more and less than 40%) | 0 (Herbicidal rate of 5% or less (almost no effect)) | 0 (Herbicidal rate of 5% or less (almost no effect)) | 0 (Herbicidal rate of 5% or less (almost no effect)) | 0 (Herbicidal rate of 5% or less (almost no effect)) | 0 (Herbicidal rate of 5% or less (almost no effect)) | 3 (Herbicidal rate of 40% or more and less than 70%) | 3 (Herbicidal rate of 40% or more and less than 70%) | 0 (Herbicidal rate of 5% or less (almost no effect)) | 3 (Herbicidal rate of 40% or more and less than 70%) | 0 (Herbicidal rate of 5% or less (almost no effect)) | 0 (Herbicidal rate of 5% or less (almost no effect)) | 1 (Herbicidal rate of 5% or more and less than 20%) | 0 (Herbicidal rate of 5% or less (almost no effect)) | 0 (Herbicidal rate of 5% or less (almost no effect)) | – |
| COc1ccc(-c2sc3ccc(F)cc3c2-c2c(O)c(C)nn(C)c2=O)c(F)c1 [2-364] | 0 (Herbicidal rate of 5% or less (almost no effect)) | 0 (Herbicidal rate of 5% or less (almost no effect)) | 0 (Herbicidal rate of 5% or less (almost no effect)) | 0 (Herbicidal rate of 5% or less (almost no effect)) | 0 (Herbicidal rate of 5% or less (almost no effect)) | 0 (Herbicidal rate of 5% or less (almost no effect)) | 4 (Herbicidal rate of 70% or more and less than 90%) | 5 (Herbicidal rate of 90% or more (almost completely withered)) | 0 (Herbicidal rate of 5% or less (almost no effect)) | 4 (Herbicidal rate of 70% or more and less than 90%) | 4 (Herbicidal rate of 70% or more and less than 90%) | 0 (Herbicidal rate of 5% or less (almost no effect)) | 1 (Herbicidal rate of 5% or more and less than 20%) | 0 (Herbicidal rate of 5% or less (almost no effect)) | 0 (Herbicidal rate of 5% or less (almost no effect)) | – |
| CCCC(=O)Oc1c(C)nn(C)c(=O)c1-c1c(-c2ccc(OC)cc2F)sc2ccc(F)cc12 [2-365] | 0 (Herbicidal rate of 5% or less (almost no effect)) | 0 (Herbicidal rate of 5% or less (almost no effect)) | 0 (Herbicidal rate of 5% or less (almost no effect)) | 0 (Herbicidal rate of 5% or less (almost no effect)) | 0 (Herbicidal rate of 5% or less (almost no effect)) | 0 (Herbicidal rate of 5% or less (almost no effect)) | 1 (Herbicidal rate of 5% or more and less than 20%) | 5 (Herbicidal rate of 90% or more (almost completely withered)) | 0 (Herbicidal rate of 5% or less (almost no effect)) | 4 (Herbicidal rate of 70% or more and less than 90%) | 5 (Herbicidal rate of 90% or more (almost completely withered)) | 0 (Herbicidal rate of 5% or less (almost no effect)) | 3 (Herbicidal rate of 40% or more and less than 70%) | 0 (Herbicidal rate of 5% or less (almost no effect)) | 0 (Herbicidal rate of 5% or less (almost no effect)) | – |

Reference: patent US20230085307A1, “PYRIDAZINONE COMPOUND AND HERBICIDE” (NISSAN CHEMICAL CORPORATION, priority 2019, published 2023)
